# Target: T1, human Kv7.2+Kv7.3 channels (Homo sapiens, UniProt O43525+O43526)
# T1 construct: expressed in transfected cells; host or cells: HEK293
# Test: Patch-clamp on HEK293 cell lines stably expressing human Kv7.2+Kv7.3 channels
# Assay type: cell-based
# Settings: current relative to baseline current defined as 100%, HEK293 cells, test concentration not given
# Description: The effect obtained by these channel activators is described as a percentage increase in baseline current at a given concentration. The baseline current is defined as 100%, and an increase in current is expressed relative to this, i.e. an increase from 1 nA to 1.2 nA is reported as 120%.
row,Structure (SMILES),"IK (%) at −30 mV, 1 s [%]"
1,"O=C(Cc1cc(F)cc(F)c1)Nn1c(N2CCCC2)nc2ccccc2c1=O [Compound C1, 2-(3,5-Difluoro-phenyl)-N-(4-oxo-2-pyrrolidin-1-yl-4H-quinazolin-3-yl)-acetamide]",150
2,"CCN(CC)c1nc2ccccc2c(=O)n1NC(=O)Cc1ccc(Cl)cc1 [Compound C3, 2-(4-Chloro-phenyl)-N-(2-diethylamino-4-oxo-4H-quinazolin-3-yl)-acetamide]",144
3,"CC(C(=O)Nn1c(N(C)C)nc2cc(C(F)(F)F)ccc2c1=O)c1cc(F)cc(F)c1 (stereo not shown) [Compound C5, 2-(3,5-Difluoro-phenyl)-N-(2-dimethylamino-4-oxo-7-trifluoromethyl-4H-quinazolin-3yl)-propionamide]",143
4,"O=C(Cc1ccc(C(F)(F)F)c(F)c1)Nn1c(N2CCCC2)nc2ccccc2c1=O [Compound C11, 2-(3-Fluoro-4-trifluoromethyl-phenyl)-N-(4-oxo-2-pyrrolidin-1-yl-4H-quinazolin-3-yl)-acetamide]",153
5,"CCN(CC)c1nc2ccc(F)cc2c(=O)n1NC(=O)Cc1cc(F)cc(F)c1 [Compound C19, N-(2-Diethylamino-6-fluoro-4-oxo-4H-quinazolin-3-yl)-2-(3,5-difluoro-phenyl)-acetamide]",215
6,"CCN(CC)c1nc2ccccc2c(=O)n1NC(=O)Cc1cc(F)cc(F)c1 [Compound D2, N-(2-Diethylamino-4-oxo-4H-quinazolin-3-yl)-2-(3,5-difluoro-phenyl)-acetamide]",290
7,"CCN(CC)c1nc2ccc(O)cc2c(=O)n1NC(=O)Cc1cc(F)cc(F)c1 [Compound F1, N-(2-Diethylamino-6-hydroxy-4-oxo-4H-quinazolin-3-yl)-2-(3,5-difluoro-phenyl)-acetamide]",110

# — patent US8178544B2, “2, 3-diamino-quinazolinone derivatives and their medical use” (Neurosearch A/S, priority 2007, dated 2012)
